We go through one molecule from ChEMBL document CHEMBL1212707, “Decoding endocannabinoid signaling” (Nat Chem Biol, 2009).

Each structure is given as a SMILES string.

Assay [1] is described as follows: Inhibition of MAGL.
Another assay is filed under the species Mus musculus. The assay is described as follows: Inhibition of MAGL in mouse brain. It is filed as tissue-based. To be noted: dose or concentration not given here.
For a further assay, the system named is Brain. As to the kind of experiment: Increase in 2-arachidonoylglycerol level in mouse brain relative to untreated control. It is filed as functional.

With `O=C(Oc1ccc([N+](=O)[O-])cc1)N1CCC(C(O)(c2ccc3c(c2)OCO3)c2ccc3c(c2)OCO3)CC1`, the midpoint of inhibition in assay [1], the IC50, lay at 8 nM. The inhibition (as a rule, the share of the control response that was lost under treatment) in the assay listed under Mus musculus is 85%. The “fold change (FC)” value in the assay with Brain is listed as 8.
